According to US20070244103A1, “Novel Compounds Having an Anti-Bacterial Activity” (Morphochem Aktiengesellschaft Fur Kombinatorische Chemie, priority 2004, published 2007):

Test: MIC of the examples against various organisms
Assay type: cell-based
Conditions: against at least two of the above organisms (12-strain panel)
Experimental: The MIC (μg/ml) of the examples against various organisms was determined: A. baumannii ATCC19606, E. cloacae ATCC23355, E. coli ATCC25922, K. pneumoniae ATCC27736, P. mirabilis ATCC29906, P. aeruginosa ATCC27853, S. maltophilia ATCC13637, S. aureus ATCC43300, S. epidermidis ATCC14990, S. haemolyticus ATCC29970, E. faecalis ATCC29212 and E. faecium ATC19434.

MIC | Compound
≤ 2 µg/mL | COc1cnc2cccc(NC(=O)C3CCCC(CNCc4cc5c(cn4)OCCO5)C3)c2n1 (centres unmarked) [Example 107, 3-{[(2,3-Dihydro-[1,4]dioxino[2,3-c]pyridin-7-ylmethyl)-amino]-methyl}-cyclohexanecarboxylic acid (3-methoxy-quinoxalin-5-yl)-amide]
≤ 2 µg/mL | COc1ccc2cccc(NC(=O)C3CCCC(CNCc4ccc5c(n4)NC(=O)CS5)C3)c2n1 (centres unmarked) [Example 108, 3-{[(3-Oxo-3,4-dihydro-2H-pyrido[3,2-b][1,4]thiazin-6-ylmethyl)-amino]-methyl}-cyclohexanecarboxylic acid (2-methoxy-quinolin-8-yl)-amide]
≤ 2 µg/mL | COc1ccc2cccc(NC(=O)C3CCCC(CNCc4ccc5c(c4)OCCO5)C3)c2n1 (centres unmarked) [Example 110, 3-{[(2,3-Dihydro-benzo[1,4]dioxin-6-ylmethyl)-amino]-methyl}-cyclohexanecarboxylic acid (2-methoxy-quinolin-8-yl)-amide]
≤ 2 µg/mL | COc1ccc2cccc(NC(=O)C3CCCC(CNCc4cc5c(cn4)OCCO5)C3)c2n1 (centres unmarked) [Example 111, 3-{[(2,3-Dihydro-[1,4]dioxino[2,3-c]pyridin-7-ylmethyl)-amino]-methyl}-cyclohexanecarboxylic acid (2-methoxy-quinolin-8-yl)-amide]
≤ 2 µg/mL | COc1ccc2cccc(NC(=O)C3CCCC(CNCc4ccc5c(c4)NC(=O)CS5)C3)c2n1 (centres unmarked) [Example 112, 3-{[(3-oxo-3,4-dihydro-2H-benzo[1,4]thiazin-6-ylmethyl)-amino]-methyl}-cyclohexanecarboxylic acid (2-methoxy-quinolin-8-yl)-amide]
